Test results: patent US8318743B2, “Medicament for the enhancement of cognitive function and neuroprotection” (Egis Gyogyszergyar Nyilvanosan Mukodo Reszvenytarsasag, priority 2006, dated 2012)
Marks after values point to notes of the source that are not given here.

How the values were obtained:
male Wistar rats = assay: passive avoidance test (step-through); assay type: in vivo, rat; conditions: for effect on memory in passive avoidance: 0.005 mg/kg p.o.
Experimental: The passive avoidance tests were carried out in male Wistar rats weighing 200 to 220 g (Charles River, Budapest). The experimental animals were kept in a room having a circadian light-dark periods of 12-12 hours. The light was switched on at 6:00 am. The relative humidity of the room was 60±10%.
The tests were carried out in a so-called step-through type apparatus with five channels which is suitable for testing of passive avoidance learning.
The apparatus comprises two plexiglass boxes of 20×20×16 cm. One of the boxes is clear, the other one is non-transparent, black-painted. There exists a separating wall between the boxes having an opening of 7.5×8 cm. The opening can be opened or closed by a computer-controlled shutter door. The transition of the rat from one box into the other is detected by two parallel photocell rows and the door is automatically shut after the transition of the animal. The floor of the black-painted box consists of stainless steel rods equipped with an electrical circuit suitable for the delivery of an electric shock. There is a 10-W bulb above the door at the light (transparent) side of the apparatus.
The tests were carried out on two subsequent days with a 24-hour time difference.
The first part of the test is the so-called acquisition period, wherein the animal is able to gain specific information characteristic to the situation (upon entry into the dark box, an electric shock is delivered). The second part of the test is the so-called retention period. In this stage, the ability of the animal to remember the information which was collected in the first part is tested (upon entry into the dark part, an electric shock will be delivered, therefore it is less traumatic to stay in the light compartment).
On the first day of the testing (acquisition period), the numbered animals are placed into the clear compartment of the apparatus while the shutter door is closed. After 30 seconds, the door is opened and the animal could freely enter the dark box. At the same time, the clock for the measurement of the transition latency was started. The transition latency is the period of time which elapses between the opening of the shutter door and the transition of the animal from the light compartment into the dark one. When the animal entered the dark box, the clock measuring the latency is stopped. 3 seconds after the entry into the dark compartment, an electric shock of 0.4 mA is delivered for 10 seconds to the animals in the form of a paw shock. Animals belonging to the absolute control groups were not delivered a paw shock. After the electric shock, the animals were immediately removed from the apparatus. A 180-sec period was available for the animals to enter the dark compartment. […] This is the essence of acquisition.
During the second-day test (retention) after 24 hours, the animals were placed into the apparatus again. The subsequent part of the procedure was identical to that performed on the first day with the only difference that except for one group, no electric shock was delivered to the animals. Similarly to the first day, 180 sec was provided for the animals to enter the dark box.
During the tests directed to the determination of the effect of 4-chloro-5-{2-[4-(6-fluoro-1,2-benz[d]isoxazole-3-yl)piperidin-1-yl]ethyl-amino}-2-methyl-3-(2H)pyridazinone of the Formula (I), the experimental animals were treated with the test substance and the reference substance or with vehicle (0.4% methylcellulose) on the second day, 60 minutes before placing the animals into the apparatus. The treatment was carried out orally at a dose of 0.005 mg/kg in a volume of 5 ml/kg.
The statistical evaluation was carried out with multiple way variance analysis. The differences between groups were analyzed by Duncan-test.

rats = assay: object recognition test; assay type: in vivo, rat
Source text: The object recognition test in rats is based on the observation that when animals are encountered with unknown environment, they scour around and discover the available area. They act similarly in case of unknown objects arranged within their area.
In the present experimental arrangement, one day prior to the actual testing day, animals are placed in a box where they have two minutes to get acquainted with the surroundings. On the first day of the experiment, two identical objects (in the present arrangement, a plastic rinse bottle and a glass bottle) are placed in the box and the length of the period is determined during which the animals spend time while examining the two objects. The length of test period is 4-5 minutes. The difference between the length of the time periods spent with the examination of each object is the so-called discrimination index.
On the second day (24 hours after the first testing period) of the experiment, two different objects are placed in the box, among which one is known for the animals and the other is unknown.
In the case when a memory-enhancing drug is administered to the animals on the first day (e.g. orally, 60 minutes prior to testing), the animals are able to recall the already known objects better and the discrimination index is increased in favour of the unknown object.

male gerbils = assay: global cerebral ischemia model by bilateral carotid artery occlusion, hippocampal CA1 neuronal damage; assay type: in vivo, gerbil; conditions: for proportion of the neuronal damage in CA1 region of the hippocampus / Effect %: 0.1 mg/kg ip.; for CA 1 lesion: 0.1 mg/kg ip. 45 minutes after surgery, average score on scale 0-6, four days after 3 min bilateral carotid occlusion; for Effect %: CA1 lesion score versus control animals
Experimental: The neuroprotective effect of 4-chloro-5-{2-[4-(6-fluoro-1,2-benz[d]isoxazole-3-yl)piperidin-1-yl]ethyl-amino}-2-methyl-3-(2H)pyridazinone of the Formula (I) was tested in gerbils by global cerebral ischemia model by bilateral occlusion of the carotid artery and in rats by focal cerebral ischemia model via the permanent occlusion of the central cerebral artery. Risperidone[3-(2-(4-(6-fluoro-1,2-benz[d]isoxazole-3-yl)-1-piperidinyl)ethyl)-6,7,8,9-tetrahydro-2-methyl-4H-pyrido[1,2-a]pyrimidin-4-one] of the Formula (II) was used as reference compound.
The tests in the global cerebral ischemia model were performed in male gerbils weighing 50-80 g. During surgery, the animals were anaesthetized with ether, and the carotid arteries were set free in the paratracheal region by a ventral incision in the central region. The carotid arteries were separated from the vagosympatic nerve-trunk and were occluded for 3 minutes using artery forceps and subsequently released. The body temperature of the animals was checked during surgery and was kept in the normal range using an infrared lamp (37.5±0.5° C.). The test substance 4-chloro-5-{2-[4-(6-fluoro-1,2-benz[d]isoxazole-3-yl)piperidin-1-yl]ethyl-amino}-2-methyl-3-(2H)pyridazinone of the Formula (I) and the reference substance risperidone of the Formula (II) were administered in a dose of 0.1 mg/kg intraperitoneally 45 minutes after surgery.
Four days after surgery, animals were anaesthetised using pentobarbital-Na (60 mg/kg ip., 10 ml/kg) and the brains were perfused with saline thorough the left ventricle. The perfusion was continued for an additional 30 minutes using fixative solution (200 ml/animal). The fixative solution contained 0.1% of glutaraldehyde, 4% of paraformaldehyde and 0.2% of picric acid in 0.1 M phosphate buffer (pH 7.4). After perfusion, the brains were removed from the skulls and were stored in the above-mentioned fixative solution for at least one week at 4° C. in a refrigerator.
The cerebral part containing the dorsal hippocampus has been dissected into 60-μm thick coronal sections using a freezing microtome. The sections were washed four times by shaking for 30 minutes in 0.1 M phosphate buffer (pH 7.4) during which the cerebral sections were floating in the washing solution. Subsequently the cerebral sections were stained using silver impregnation. The staining by the silver impregnation method comprises (a) immersing the sample into a preparatory solution twice for 5 minutes (the preparatory solution comprises aqueous 2% sodium hydroxide and 0.875% ammonium hydroxide solution); (b) immersing the sample into the impregnating solution for 10 minutes (solution of 0.875% ammonium hydroxide and 0.5% silver nitrate in water), (c) washing the sample twice for 2 minutes and finally for one minute in the solution of 0.5% of sodium carbonate and 0.01% ammonium nitrate in aqueous 29.1% ethanol); (d) development for one minute by immersing the section into a development solution (1-1.5% formaldehyde and 0.01% ammonium nitrate in 9.9% ethanol), (e) fixation three times for three minutes each in 0.5% acetic acid solution. The stained cerebral sections were placed into 0.1 M phosphate buffer (pH 7.4) and subsequently chromic gelatine, mounted on slides and dehydrated (dried), treated with xylene for 10 minutes and the cover plates were attached using DPX histological adhesive (Fluka).
The bilateral neuronal damage in the CAl region of the hippocampus have been evaluated on a six-score scale as follows: 0—no damage observed; 1—0-10% neuronal damage; 2—10-30% neuronal damage; 3—30-50% neuronal damage; 4—50-70% neuronal damage; 5—70-90% neuronal damage; 6—90-100% neuronal damage. The average scores measured in the treated group were expressed in the percentage of the average scores observed in the case of the control animals. The statistical evaluation was carried out by non-parametric Mann-Whitney U-test.

[1] = 0.4 mA/10 sec electric shock + treatment 0.005 mg/kg p.o. 60 minutes before test
[2] = treatment 0.005 mg/kg p.o. without electric shock

| Structure (SMILES) | effect on memory in passive avoidance (male Wistar rats) | Transition latency First Day sec ± SE (male Wistar rats; [1]) | Transition latency First Day sec ± SE (male Wistar rats; [2]) [s] | memory functions in object recognition (rats; 0.01 mg/kg) | Discrimination index(s) Day 1 (rats; 0.01 mg/kg p.o., Day 1) [s] | Discrimination index(s) Day 2 (rats; 0.01 mg/kg p.o., Day 2 (24 hours after first testing)) [s] | proportion of the neuronal damage in CA1 region of the hippocampus (male gerbils) | CA 1 lesion (male gerbils) | Effect % (male gerbils) [%] |
| --- | --- | --- | --- | --- | --- | --- | --- | --- | --- |
| Cn1ncc(NCCN2CCC(c3noc4cc(F)ccc34)CC2)c(Cl)c1=O [Formula (I), 4-chloro-5-{2-[4-(6-fluoro-1,2-benz[d]isoxazole-3-yl)piperidine-1-yl]ethyl-amino}-2-methyl-3-(2H)pyridazinone] | significantly improved the memory | 155.9 ± 15.5^++ sec | 21.2 ± 8.8 | significantly enhanced | 0.4 ± 0.8 | 10.9 ± 1.4 | significantly decreased | 2.80** | −46 |
| Cc1nc2n(c(=O)c1CCN1CCC(c3noc4cc(F)ccc34)CC1)CCCC2 [Risperidone, 3-(2-(4-(6-fluoro-1,2-benz[d]isoxazole-3-yl)-1-piperidinyl)-ethyl)-6,7,8,9-tetrahydro-2-methyl-4H-pyrido[1,2-a]pyrimidin-4-one, reference compound] | did not exhibit any effect | 85.5 ± 22.0 s | 36.1 ± 15.9 |  |  |  | ineffective | 4.67 | −2 |
